Bounds are passed on as bounds.

The first test deals with HCT-116. Kind of test: Antiproliferative activity against human HCT116 cells by MTT assay. It is filed as functional.
`CCC(=O)O[C@@H](C)[C@@]1(C)CCC[C@@]2(C)[C@H]1CC[C@]1(C)[C@@H]2C[C@H](OC(=O)CC(O)CC)[C@]2(C)C3=C(CC[C@@H]12)[C@@H](C)OC3=O` (some centres undefined): the GI50 (commonly the concentration giving 50% growth inhibition) was over 30 µM.
On the same count and under the same terms, the value for `CC(O)CC(=O)O[C@H]1C[C@@H]2[C@@]3(C)CCC[C@@]4(C[C@@H]4C)[C@@H]3CC[C@@]2(C)[C@@H]2C[C@@H](O)C3=C([C@H](O)CC3=O)[C@@]12C` (some centres undefined) was over 30 µM; that for `CC(=O)O[C@@H](C)[C@@]1(C)CCC[C@@]2(C)[C@H]1CC[C@]1(C)[C@@H]2C[C@H](OC(=O)CC(C)O)[C@]2(C)C=C(C(C)=O)[C@H](O)C[C@H]21` (some centres undefined) was over 30 µM; that for `CC(=O)C1=C[C@@]2(C)[C@@H](OC(=O)CC(C)O)C[C@H]3[C@@](C)(CC[C@@H]4[C@]3(C)CCC[C@@]43C[C@@H]3C)[C@@H]2C[C@H]1O` (some centres undefined) was 6.4 µM.
Same read-out and setting: in the case of `CC(=O)O[C@H]1C[C@@H]2[C@@]3(C)CCC[C@@]4(C[C@@H]4C)[C@@H]3CC[C@@]2(C)[C@@H]2CCC3=C(C(=O)O[C@@H]3C)[C@@]12C` it was over 30 µM.
Same read-out and setting: in the case of `CC[C@@]1(C)CCC[C@]2(C)[C@H]3C[C@H](OC(=O)CC(C)O)[C@]4(C)C=C(C(C)=O)[C@H](O)C[C@H]4[C@]3(C)CC[C@@H]12` (some centres undefined) it was over 30 µM.
Turning to `CC(=O)O[C@H]1C[C@@H]2[C@@]3(C)CCC[C@@]4(C[C@@H]4C)[C@@H]3CC[C@@]2(C)[C@@H]2CCC3=C(C(=O)O[C@H]3C)[C@@]12C`, the GI50 was over 30 µM.
In turn, `COc1cccc2c1C(=O)c1c(O)c3c(c(O)c1C2=O)C[C@@](O)(C(=O)CO)C[C@@H]3O[C@H]1C[C@H](N)[C@H](O)[C@H](C)O1` [DOXORUBICIN] came in with a GI50 of under 1 µM.

Another test concerns A549. Briefly: Antiproliferative activity against human A549 cells by MTT assay. It counts as functional. A general note: Formazan colour is commonly taken as a measure of viable cells.
As to `CCC(=O)O[C@@H](C)[C@@]1(C)CCC[C@@]2(C)[C@H]1CC[C@]1(C)[C@@H]2C[C@H](OC(=O)CC(O)CC)[C@]2(C)C3=C(CC[C@@H]12)[C@@H](C)OC3=O` (some centres undefined), the GI50 was over 30 µM.
The compound `CC(O)CC(=O)O[C@H]1C[C@@H]2[C@@]3(C)CCC[C@@]4(C[C@@H]4C)[C@@H]3CC[C@@]2(C)[C@@H]2C[C@@H](O)C3=C([C@H](O)CC3=O)[C@@]12C` (some centres undefined) showed a GI50 of over 30 µM.
For the compound `CC(=O)O[C@@H](C)[C@@]1(C)CCC[C@@]2(C)[C@H]1CC[C@]1(C)[C@@H]2C[C@H](OC(=O)CC(C)O)[C@]2(C)C=C(C(C)=O)[C@H](O)C[C@H]21` (some centres undefined), the GI50 is over 30 µM.
For the compound `CC(=O)C1=C[C@@]2(C)[C@@H](OC(=O)CC(C)O)C[C@H]3[C@@](C)(CC[C@@H]4[C@]3(C)CCC[C@@]43C[C@@H]3C)[C@@H]2C[C@H]1O` (some centres undefined), the GI50 was found to be 8.1 µM.
`CC(=O)O[C@H]1C[C@@H]2[C@@]3(C)CCC[C@@]4(C[C@@H]4C)[C@@H]3CC[C@@]2(C)[C@@H]2CCC3=C(C(=O)O[C@@H]3C)[C@@]12C`: the GI50 is over 30 µM.
The compound `CC[C@@]1(C)CCC[C@]2(C)[C@H]3C[C@H](OC(=O)CC(C)O)[C@]4(C)C=C(C(C)=O)[C@H](O)C[C@H]4[C@]3(C)CC[C@@H]12` (some centres undefined) showed a GI50 of over 30 µM.
`CC(=O)O[C@H]1C[C@@H]2[C@@]3(C)CCC[C@@]4(C[C@@H]4C)[C@@H]3CC[C@@]2(C)[C@@H]2CCC3=C(C(=O)O[C@H]3C)[C@@]12C`: the GI50 was over 30 µM.
Turning to `COc1cccc2c1C(=O)c1c(O)c3c(c(O)c1C2=O)C[C@@](O)(C(=O)CO)C[C@@H]3O[C@H]1C[C@H](N)[C@H](O)[C@H](C)O1` [DOXORUBICIN], the GI50 was under 1 µM.

For the next test, the system named is Bel-7402. Briefly: Antiproliferative activity against human Bel7402 cells by MTT assay. It is filed as functional.
Compound `CCC(=O)O[C@@H](C)[C@@]1(C)CCC[C@@]2(C)[C@H]1CC[C@]1(C)[C@@H]2C[C@H](OC(=O)CC(O)CC)[C@]2(C)C3=C(CC[C@@H]12)[C@@H](C)OC3=O` (some centres undefined) yielded a GI50 of over 30 µM.
Regarding `CC(O)CC(=O)O[C@H]1C[C@@H]2[C@@]3(C)CCC[C@@]4(C[C@@H]4C)[C@@H]3CC[C@@]2(C)[C@@H]2C[C@@H](O)C3=C([C@H](O)CC3=O)[C@@]12C` (some centres undefined), the GI50 was over 30 µM.
Compound `CC(=O)O[C@@H](C)[C@@]1(C)CCC[C@@]2(C)[C@H]1CC[C@]1(C)[C@@H]2C[C@H](OC(=O)CC(C)O)[C@]2(C)C=C(C(C)=O)[C@H](O)C[C@H]21` (some centres undefined) displayed a GI50 of over 30 µM.
The same measure, in the same setting: the value for `CC(=O)C1=C[C@@]2(C)[C@@H](OC(=O)CC(C)O)C[C@H]3[C@@](C)(CC[C@@H]4[C@]3(C)CCC[C@@]43C[C@@H]3C)[C@@H]2C[C@H]1O` (some centres undefined) was 11 µM; that for `CC(=O)O[C@H]1C[C@@H]2[C@@]3(C)CCC[C@@]4(C[C@@H]4C)[C@@H]3CC[C@@]2(C)[C@@H]2CCC3=C(C(=O)O[C@@H]3C)[C@@]12C` was over 30 µM.
On to `CC[C@@]1(C)CCC[C@]2(C)[C@H]3C[C@H](OC(=O)CC(C)O)[C@]4(C)C=C(C(C)=O)[C@H](O)C[C@H]4[C@]3(C)CC[C@@H]12` (some centres undefined), for which the GI50 is over 30 µM.
For `CC(=O)O[C@H]1C[C@@H]2[C@@]3(C)CCC[C@@]4(C[C@@H]4C)[C@@H]3CC[C@@]2(C)[C@@H]2CCC3=C(C(=O)O[C@H]3C)[C@@]12C`, the GI50 is over 30 µM.
The compound `COc1cccc2c1C(=O)c1c(O)c3c(c(O)c1C2=O)C[C@@](O)(C(=O)CO)C[C@@H]3O[C@H]1C[C@H](N)[C@H](O)[C@H](C)O1` [DOXORUBICIN] registered a GI50 of under 1 µM.

The subject of a further test is Jurkat. Kind of test: Antiproliferative activity against human Jurkat cells by MTT assay. It counts as functional.
Consider `CCC(=O)O[C@@H](C)[C@@]1(C)CCC[C@@]2(C)[C@H]1CC[C@]1(C)[C@@H]2C[C@H](OC(=O)CC(O)CC)[C@]2(C)C3=C(CC[C@@H]12)[C@@H](C)OC3=O` (some centres undefined), for which the GI50 was over 30 µM.
Take `CC(O)CC(=O)O[C@H]1C[C@@H]2[C@@]3(C)CCC[C@@]4(C[C@@H]4C)[C@@H]3CC[C@@]2(C)[C@@H]2C[C@@H](O)C3=C([C@H](O)CC3=O)[C@@]12C` (some centres undefined): the GI50 is over 30 µM.
Same read-out and setting: in the case of `CC(=O)O[C@@H](C)[C@@]1(C)CCC[C@@]2(C)[C@H]1CC[C@]1(C)[C@@H]2C[C@H](OC(=O)CC(C)O)[C@]2(C)C=C(C(C)=O)[C@H](O)C[C@H]21` (some centres undefined) it was over 30 µM; in that of `CC(=O)C1=C[C@@]2(C)[C@@H](OC(=O)CC(C)O)C[C@H]3[C@@](C)(CC[C@@H]4[C@]3(C)CCC[C@@]43C[C@@H]3C)[C@@H]2C[C@H]1O` (some centres undefined), 13 µM; in that of `CC(=O)O[C@H]1C[C@@H]2[C@@]3(C)CCC[C@@]4(C[C@@H]4C)[C@@H]3CC[C@@]2(C)[C@@H]2CCC3=C(C(=O)O[C@@H]3C)[C@@]12C`, over 30 µM.
As for `CC[C@@]1(C)CCC[C@]2(C)[C@H]3C[C@H](OC(=O)CC(C)O)[C@]4(C)C=C(C(C)=O)[C@H](O)C[C@H]4[C@]3(C)CC[C@@H]12` (some centres undefined), the 50% growth inhibitory concentration (GI50) is over 30 µM.
Still for that read-out and setting: the value for `CC(=O)O[C@H]1C[C@@H]2[C@@]3(C)CCC[C@@]4(C[C@@H]4C)[C@@H]3CC[C@@]2(C)[C@@H]2CCC3=C(C(=O)O[C@H]3C)[C@@]12C` was over 30 µM; that for `COc1cccc2c1C(=O)c1c(O)c3c(c(O)c1C2=O)C[C@@](O)(C(=O)CO)C[C@@H]3O[C@H]1C[C@H](N)[C@H](O)[C@H](C)O1` [DOXORUBICIN] was under 1 µM.

The subject of a further test is K562. Briefly: Antiproliferative activity against human K562 cells by MTT assay. It counts as functional.
In turn, `CCC(=O)O[C@@H](C)[C@@]1(C)CCC[C@@]2(C)[C@H]1CC[C@]1(C)[C@@H]2C[C@H](OC(=O)CC(O)CC)[C@]2(C)C3=C(CC[C@@H]12)[C@@H](C)OC3=O` (some centres undefined) yielded a concentration for 50% growth inhibition (GI50) of over 30 µM.
On the same count and under the same terms, the value for `CC(O)CC(=O)O[C@H]1C[C@@H]2[C@@]3(C)CCC[C@@]4(C[C@@H]4C)[C@@H]3CC[C@@]2(C)[C@@H]2C[C@@H](O)C3=C([C@H](O)CC3=O)[C@@]12C` (some centres undefined) was over 30 µM; that for `CC(=O)O[C@@H](C)[C@@]1(C)CCC[C@@]2(C)[C@H]1CC[C@]1(C)[C@@H]2C[C@H](OC(=O)CC(C)O)[C@]2(C)C=C(C(C)=O)[C@H](O)C[C@H]21` (some centres undefined) was over 30 µM; that for `CC(=O)O[C@H]1C[C@@H]2[C@@]3(C)CCC[C@@]4(C[C@@H]4C)[C@@H]3CC[C@@]2(C)[C@@H]2CCC3=C(C(=O)O[C@@H]3C)[C@@]12C` was over 30 µM.
Still for that read-out and setting: in the case of `CC[C@@]1(C)CCC[C@]2(C)[C@H]3C[C@H](OC(=O)CC(C)O)[C@]4(C)C=C(C(C)=O)[C@H](O)C[C@H]4[C@]3(C)CC[C@@H]12` (some centres undefined) it was over 30 µM; in that of `CC(=O)O[C@H]1C[C@@H]2[C@@]3(C)CCC[C@@]4(C[C@@H]4C)[C@@H]3CC[C@@]2(C)[C@@H]2CCC3=C(C(=O)O[C@H]3C)[C@@]12C`, over 30 µM; in that of `COc1cccc2c1C(=O)c1c(O)c3c(c(O)c1C2=O)C[C@@](O)(C(=O)CO)C[C@@H]3O[C@H]1C[C@H](N)[C@H](O)[C@H](C)O1` [DOXORUBICIN], under 1 µM.

These data come from ChEMBL document CHEMBL4602669, “Bishomoscalarane Sesterterpenoids from the Sponge Dysidea granulosa Collected in the South China Sea” (2020).
